Measured values reported in publication PMC6151550, “Inhibitory Effect of Selaginellins from Selaginella tamariscina (Beauv.) Spring against Cytochrome P450 and Uridine 5′-Diphosphoglucuronosyltransferase Isoforms on Human Liver Microsomes” (Molecules : A Journal of Synthetic Chemistry and Natural …, 2017).

Tests used:
Format in all cases: in vitro ADME
UGT1A3 = biological target: T1, UGT1A3 (Homo sapiens, UniProt P35503); assay: UGT1A3 inhibition (chenodeoxycholic acid glucuronidation) in human liver microsomes, cocktail LC-MS/MS; conditions: IC50 UGT isoform 1A3, HLMs 0.25 mg/mL with alamethicin, chenodeoxycholic acid 2.0 μM
T1 construct: from tissue; host or cells: human liver microsomes
T1 sequence (P35503 29-534): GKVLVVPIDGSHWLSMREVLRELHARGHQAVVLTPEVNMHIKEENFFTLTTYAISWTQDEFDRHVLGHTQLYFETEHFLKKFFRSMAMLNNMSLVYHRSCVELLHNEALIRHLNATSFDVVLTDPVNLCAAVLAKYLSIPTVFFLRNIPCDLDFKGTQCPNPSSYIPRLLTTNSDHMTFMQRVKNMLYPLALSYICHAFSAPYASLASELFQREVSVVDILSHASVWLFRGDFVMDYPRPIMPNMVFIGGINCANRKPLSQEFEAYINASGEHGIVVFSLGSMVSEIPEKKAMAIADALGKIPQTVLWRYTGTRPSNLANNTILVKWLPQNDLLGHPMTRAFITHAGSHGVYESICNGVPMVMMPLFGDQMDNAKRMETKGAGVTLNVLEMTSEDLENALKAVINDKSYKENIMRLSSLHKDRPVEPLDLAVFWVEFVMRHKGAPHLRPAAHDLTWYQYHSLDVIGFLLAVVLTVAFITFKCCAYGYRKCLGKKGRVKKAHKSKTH
Method: (§1) The inhibitory effects of two selaginellins on the metabolism of six UGT probe substrates were evaluated using previously reported method with minor modification. In brief, HLMs (0.25 mg/mL) were activated by incubation in the presence of alamethicin (25 μg/mL) for 15 min on ice. After the addition of UGT isoform-selective substrates and selaginellins (0, 0.5, 2, 5, 20 and 50 μM) the final concentrations of organic solvent (methanol) for the cocktail incubation conditions were 1.0% (v/v). The incubation reaction mixtures were pre-incubated for 5 min. The reaction was initiated by the addition of 5 mM UDPGA and further incubated for 60 min. All reactions were terminated by adding ice-cold acetonitrile containing estrone glucuronide (IS). After mixing and centrifugation, aliquots were injected into a LC-MS/MS as described previously (Table 2). All microsomal incubations were performed in triplicate.
(§2) The IC50 values (concentration of the inhibitor causing 50% inhibition of the original enzyme activity) were calculated using WinNonlin software (Pharsight, Mountain View, CA, USA): percentage of control activity = 100 × [1 − (I/(I + IC50))], where I is the inhibitor concentration, and IC50 is the inflection point on the curve.

CYP2C19 = biological target: T2, CYP2C19 (Homo sapiens, UniProt P33261); assay: CYP2C19 inhibition (omeprazole 5-hydroxylase) in human liver microsomes, substrate cocktail LC-MS/MS
T2 construct: the incubation mixtures containing pooled HLMs (0.25 mg/mL, H2630, Xenotech); tissue Xenotech H2630; host or cells: pooled human liver microsomes
Method: The inhibitory effects of two selaginellins on the metabolism of ten P450 probe substrates were evaluated using previously reported method with minor modification. Phenacetin O-deethylase, coumarin 7-hydroxylase, bupropion 4-hydroxylase, amodiaquine N-deethylase, tolbutamide 4-hydroxylase, omeprazole 5-hydroxylase, dextromethorphan O-demethylase, chlorzoxazone 6-hydroxylase and midazolam 1′-hydroxylase activities were determined as probe activities for CYP1A2, CYP2A6, CYP2B6, CYP2C8, CYP2C9, CYP2C19, CYP2D6, CYP2E1 and […], respectively, using substrate cocktail incubation and tandem mass spectrometry (Table 2). Selaginellins were dissolved in methanol. The final concentrations of organic solvent (methanol) for the cocktail incubation conditions in all experiments were 1.0% (v/v). In brief, the incubation mixtures containing pooled HLMs (0.25 mg/mL, H2630, Xenotech), P450 probe substrate cocktail, and inhibitor (0, 0.5, 2, 5, 20 and 50 μM) were preincubated at 37 °C for 5 min. […] After mixing and centrifugation, aliquots were analyzed by liquid chromatography-tandem mass spectrometry (LC-MS/MS) as previous described. The CYP2J2 inhibitory effects of two selaginellins were also evaluated in pooled HLMs using previously reported method. […]

UGT1A9 = biological target: T3, UGT1A9 (Homo sapiens, UniProt O60656); assay: UGT1A9 inhibition (mycophenolic acid glucuronidation) in human liver microsomes, cocktail LC-MS/MS
T3 construct: from tissue; host or cells: human liver microsomes
T3 sequence (O60656 26-530): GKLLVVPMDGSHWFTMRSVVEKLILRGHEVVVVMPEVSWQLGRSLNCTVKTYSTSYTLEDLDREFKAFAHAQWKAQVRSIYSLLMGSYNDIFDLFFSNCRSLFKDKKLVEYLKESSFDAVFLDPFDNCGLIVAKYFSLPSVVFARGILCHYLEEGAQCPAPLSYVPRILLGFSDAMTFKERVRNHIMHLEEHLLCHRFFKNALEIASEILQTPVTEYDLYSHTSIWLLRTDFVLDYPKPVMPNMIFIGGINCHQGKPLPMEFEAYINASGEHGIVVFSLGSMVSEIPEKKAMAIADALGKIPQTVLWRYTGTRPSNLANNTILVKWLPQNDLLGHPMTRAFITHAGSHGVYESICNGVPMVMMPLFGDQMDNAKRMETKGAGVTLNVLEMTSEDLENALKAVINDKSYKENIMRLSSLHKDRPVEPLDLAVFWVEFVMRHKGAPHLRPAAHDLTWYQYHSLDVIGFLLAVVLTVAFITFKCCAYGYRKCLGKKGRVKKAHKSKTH
Method: as §1, §2

T2 sequence (P33261 whole entry): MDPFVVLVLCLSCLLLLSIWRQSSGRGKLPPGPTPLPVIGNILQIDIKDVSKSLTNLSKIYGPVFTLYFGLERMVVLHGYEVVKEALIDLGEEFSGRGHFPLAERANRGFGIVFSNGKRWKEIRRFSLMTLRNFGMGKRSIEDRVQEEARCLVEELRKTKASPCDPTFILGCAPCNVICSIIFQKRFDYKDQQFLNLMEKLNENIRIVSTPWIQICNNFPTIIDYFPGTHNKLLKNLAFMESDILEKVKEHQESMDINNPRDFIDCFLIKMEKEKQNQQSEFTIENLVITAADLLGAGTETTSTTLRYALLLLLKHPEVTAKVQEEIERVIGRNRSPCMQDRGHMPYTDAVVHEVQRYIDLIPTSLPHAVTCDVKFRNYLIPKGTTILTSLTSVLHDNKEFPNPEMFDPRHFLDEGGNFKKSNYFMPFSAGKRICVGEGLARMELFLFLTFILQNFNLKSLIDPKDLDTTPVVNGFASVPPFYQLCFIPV

| Compound | IC50 (UGT1A3) | IC50 (CYP2C19) | IC50 (UGT1A9) |
| --- | --- | --- | --- |
| COc1ccc(C(=C2C=CC(=O)C=C2)c2c(-c3ccc(O)cc3)ccc(CO)c2C#Cc2ccc(O)cc2)cc1 [Selaginellin M] | 3.5 µM | 16.1 µM | 6.5 µM |
| O=C1C=CC(=C(c2ccc(O)cc2)c2c(-c3ccc(O)cc3)ccc(CO)c2C#Cc2ccc(O)cc2)C=C1 [Selaginellin] | 4.7 µM | 10 µM | 8.7 µM |
